Measurements: patent US20050171172A1, “Amide derivatives as PDGFR modulators” (Ambit Biosciences Corporation, priority 2003, published 2005)

target: T1, human PDGFR-β (Homo sapiens, UniProt P09619); test: phage-display-based competitive binding assay for PDGFR-β; conditions: T7 phage displaying human PDGFR-β; Kd class; read-out: Binding Assay:PDGFRB (DKIN)
T1 construct: made in house
Experimental: The term “ND” represents non-determined values.
Kd values for the interactions between PDGFR-β and candidate small molecule ligands were measured by a phage-display-based competitive binding assay that is described in detail in U.S. Ser. No. 10/406,797 filed 2 Apr. 2003 and incorporated herein by reference. Briefly, T7 phage displaying human PDGFR-β were incubated with an affinity matrix coated with known PDGFR-β inhibitor in the presence of various concentrations of the soluble competitor molecules. […] The Kd for the interaction between the soluble competitor molecule and PDGFR-β is equal to the concentration of soluble competitor molecule that causes a 50% reduction in the number of phage recovered in the eluate compared to a control sample lacking soluble competitor. Kd values for the interaction between PDGFR-β and several small molecules are shown in below: […]

T1 sequence (P09619 33-1106): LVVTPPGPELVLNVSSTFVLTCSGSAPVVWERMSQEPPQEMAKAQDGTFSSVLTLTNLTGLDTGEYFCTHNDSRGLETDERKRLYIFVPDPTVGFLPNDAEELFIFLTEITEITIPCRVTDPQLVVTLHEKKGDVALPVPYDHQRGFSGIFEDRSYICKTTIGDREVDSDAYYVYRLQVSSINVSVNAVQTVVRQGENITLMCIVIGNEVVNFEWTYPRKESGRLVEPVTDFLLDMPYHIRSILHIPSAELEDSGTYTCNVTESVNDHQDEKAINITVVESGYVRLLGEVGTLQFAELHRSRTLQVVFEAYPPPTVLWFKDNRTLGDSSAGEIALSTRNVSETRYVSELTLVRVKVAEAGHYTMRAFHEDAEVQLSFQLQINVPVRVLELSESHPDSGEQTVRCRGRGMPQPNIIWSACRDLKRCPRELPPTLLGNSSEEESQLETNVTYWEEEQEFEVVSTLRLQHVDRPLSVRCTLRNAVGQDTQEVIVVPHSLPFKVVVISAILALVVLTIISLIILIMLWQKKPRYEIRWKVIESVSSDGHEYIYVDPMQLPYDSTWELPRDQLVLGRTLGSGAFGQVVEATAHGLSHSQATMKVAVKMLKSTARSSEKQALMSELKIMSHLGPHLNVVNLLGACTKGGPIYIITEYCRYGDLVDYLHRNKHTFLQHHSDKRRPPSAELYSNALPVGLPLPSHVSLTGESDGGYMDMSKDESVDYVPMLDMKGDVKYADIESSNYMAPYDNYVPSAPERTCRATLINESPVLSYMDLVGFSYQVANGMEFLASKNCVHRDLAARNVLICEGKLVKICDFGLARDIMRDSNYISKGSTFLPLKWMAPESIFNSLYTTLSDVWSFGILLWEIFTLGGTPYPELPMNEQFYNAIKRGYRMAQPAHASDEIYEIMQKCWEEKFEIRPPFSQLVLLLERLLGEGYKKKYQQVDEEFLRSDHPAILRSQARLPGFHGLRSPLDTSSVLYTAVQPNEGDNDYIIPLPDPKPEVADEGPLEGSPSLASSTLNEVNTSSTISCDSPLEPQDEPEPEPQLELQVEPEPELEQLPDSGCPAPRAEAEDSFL

| Structure (SMILES) | Kd [nM] |
| --- | --- |
| COc1ccc(CC(=O)Nc2cc(C(C)(C)C)no2)cc1 | < 100 |
| CC(C)(C)c1cc(NC(=O)Cc2ccc(Br)cc2)on1 | < 100 |
| CC(C)(C)c1cc(NC(=O)Cc2ccc(OCc3ccccc3)cc2)on1 | < 100 |
| COc1ccc(SC(=O)Nc2cc(C(C)(C)C)on2)cc1 | 1000 to 10000 |
| COc1cccc2cc([C@H](C)C(=O)Nc3cc(C(C)(C)C)on3)ccc12 | 100 to 1000 |
| CC(C)(C)c1cc(NC(=O)Sc2ccc(Cl)cc2)no1 | > 10000 |
| CC(C)(C)c1cc(NC(=O)Cc2ccc(F)cc2)on1 | 100 to 1000 |
| CC(C)Cc1ccc(C(C)C(=O)Nc2ccnn2-c2ccccc2)cc1 (stereo not shown) | > 10000 |
| CC(C)(C)c1cc(NC(=O)Cc2ccc(Cl)cc2)on1 | 100 to 1000 |
| CC(C)(C)c1cc(NC(=O)Cc2ccc(O)cc2)no1 | > 10000 |
| Cc1csc(NC(=O)Cc2ccc(OCc3ccccc3)cc2)n1 | > 10000 |
| Cc1cc(C)n(C(=O)Nc2ccc(Cl)cc2)n1 | > 10000 |
| Cc1cnc(NC(=O)Cc2ccc(OCc3ccccc3)cc2)s1 | > 10000 |
| Cc1nn(C)c(Cl)c1C(=O)Nc1ccc(CC(=O)Nc2cc(C(C)(C)C)on2)cc1 | 100 to 1000 |
| O=C(Cc1ccc(OCc2ccccc2)cc1)Nc1nc(-c2ccc(Cl)cc2)cs1 | > 10000 |
| CSc1ncc(Br)c(C(=O)Nc2ccc(CC(=O)Nc3cc(C(C)(C)C)on3)cc2)n1 | < 100 |
| O=C(Cc1ccc(OCc2ccccc2)cc1)Nc1nc2ccccc2s1 | > 10000 |
| CC(C)(C)c1cc(NC(=O)Cc2ccc(NC(=O)c3ccc4cnccc4n3)cc2)no1 | < 100 |
| COc1cccc2sc(NC(=O)Cc3ccc(OCc4ccccc4)cc3)nc12 | > 10000 |
| Cn1cc(C(=O)Nc2ccc(CC(=O)Nc3cc(C(C)(C)C)on3)cc2)c2ccccc21 | < 100 |
| CC(C)(C)c1cc(NC(=O)Cc2ccc(NC(=O)c3cccc4cccnc34)cc2)no1 | 1000 to 10000 |
| CC(C)(C)c1cc(NC(=O)Cc2ccc(NC(=O)c3cnc4ccccc4c3)cc2)no1 | < 100 |
